A short description of data set [1]: Dynamic vapor sorption (DVS). It counts as physicochemical. The following applies: for form recovered after the DVS experiment (XRPD): post DVS. As to the method:
Dynamic vapor sorption data was collected on a Surface Measurement System DVS Intrinsic instrument. The samples were not dried prior to analysis. Sorption and desorption data were collected over a range from 5% to 95% RH in 10% RH increments under a nitrogen purge. The equilibrium criteria used for the analyses were 0.001 dm/dt weight change in 5 minutes with a minimum step time of 30 minutes and maximum equilibration time of 180 minutes with a 3-minute data logging interval. Data were not corrected for the initial moisture content of the sample. The samples were identified as having low, limited or significant hygroscopicity based on the definitions in the below table.

Data set [2] in a line: Differential scanning calorimetry / thermogravimetry (DSC, TGA). The format is physicochemical. Particulars: 10° C./min. On the procedure:
DSC was performed using a Mettler-Toledo DSC3+ differential scanning calorimeter. A tau lag adjustment is performed with indium, tin, and zinc. The temperature and enthalpy are adjusted with octane, phenyl salicylate, indium, tin and zinc. The adjustment is then verified with octane, phenyl salicylate, indium, tin, and zinc. The sample was placed into a hermetically sealed aluminum DSC pan, the weight was accurately recorded, and the sample was inserted into the DSC cell. A weighed aluminum pan configured as the sample pan was placed on the reference side of the cell. The pan lid was pierced prior to sample analysis. The samples were analyzed from −25° C. to 250° C. at 10° C./min.
Thermogravimetric analyses were performed using a Mettler-Toledo TGA/DSC3+ analyzer. Temperature calibration was performed using calcium oxalate, indium, tin, and zinc. The sample was placed in an aluminum pan. The pan was hermetically sealed, the lid was pierced, and the pan was then inserted into the TG furnace. A weighed aluminum pan configured as the sample pan was placed on the reference platform. The furnace was heated under nitrogen. Samples were analyzed from 25° C. to 350° C. at 10° C./min.

Data set [3] is described as follows: Competitive interconversion slurry experiments between crystalline forms (relative thermodynamic stability). The format is physicochemical. Particulars: ambient temperature; Form E also 55° C. and 77° C. On the procedure: Interconversion experiments were performed to identify the most thermodynamically stable anhydrous form of Compound 1 (Table 19). […] The choice of solvent affects the kinetics of polymorph conversion and not the thermodynamic relationship between polymorphic forms.
Various combinations of Forms B, E, F, and Material D were slurried with Form A at ambient and elevated temperatures (for experiments involving Form E). Different solvent systems were used and included a variety of water activities. Saturated solutions were generated and then added to the mixtures composed of approximately equivalent quantities of the forms. The mixtures were slurried for a particular duration of time and the solids harvested and analyzed by XRPD.

Data set [4] is described as follows: Storage and stress stability of crystalline forms (XRPD). Particulars: for stability under ambient storage: ambient conditions. The format is physicochemical. On the procedure: XRPD patterns were collected with a PANalytical X'Pert PRO MPD or a PANalytical Empyrean diffractometer using an incident beam of Cu radiation produced using an Optix long, fine-focus source. An elliptically graded multilayer mirror was used to focus Cu Kα X-rays through the specimen and onto the detector. Prior to the analysis, a silicon specimen (NIST SRM 640e) was analyzed to verify the observed position of the Si 111 peak is consistent with the NIST-certified position. A specimen of the sample was sandwiched between 3-μm-thick films and analyzed in transmission geometry. A beam-stop, short antiscatter extension, and antiscatter knife edge were used to minimize the background generated by air. Sober slits for the incident and diffracted beams were used to minimize broadening from axial divergence. Diffraction patterns were collected using a scanning position-sensitive detector (X'Celerator) located 240 mm from the specimen and Data Collector software v. 5.5.

A further data set deals with MAM-treated rats. The following applies: cited from earlier work.
Data set [5] relates to memory-impaired aged (AI) rats. In words: Radial arm maze task with 2-hr retention interval, acute brivaracetam or seletracetam. It counts as in vivo, rat. The following applies: doses 0.0625-4 mg/kg i.p.; repeated measures ANOVA. On the procedure:
(§1) The radial arm maze experiments used acute administration of seletracetam (0-4 mg/kg), brivaracetam (0-4 mg/kg), or saline vehicle given by intraperitoneal injection (in a volume of 1 ml/kg) 30-40 min prior to test sessions.
A radial arm maze (RAM) task was used to assess effects of acute drug treatment with seletracetam and brivaracetam. This protocol allowed within-subject assessment across drugs at different doses. The radial maze consisted of eight arms projecting from each side of an octagonal center platform, with a food well located at the distal end of each arm. Plexiglas blocks could be positioned to prevent entry into any arm. Extra-maze cues were provided in the room surrounding the maze and illumination was provided by an overhead light.
Pre-training, as described in detail in Chappell et al. Neuropharmacology 37: 481-487, (1998), consisted of habituation, standard win-shift training, and win-shift training with delays interposed between information and memory test phases. Drug treatments began two days after the completion of pre-training. Three arms were blocked at the beginning of each trial (information phase). The identity and configuration of the blocked arms were varied across trials. Food-deprived rats were allowed to retrieve food reward (Kellogg's Froot Loops™ cereal) from the five unblocked arms. […]

The test system of the next data set is aged-impaired rats. In words: Water maze probe test after chronic brivaracetam (osmotic mini-pumps). The format is in vivo, rat. Particulars: 2 mg/kg/day. On the procedure: as §1
Rats were trained and tested in a novel water maze environment to assess the effect of drug treatment. The water maze used here was housed in a different building and was surrounded by curtains with a novel set of patterns relative to the maze used for initial assessment of cognitive status. The training protocol consisted of 6 trials per day for 2 days to locate a submerged escape platform. On each trial, a rat was released in the maze from one of four equally spaced starting positions around the perimeter of the pool. The starting position varied from trial to trial. […] The rat was then removed from the platform and placed in a holding cage for another 40 s before the next trial. Approximately 24 hr after the last training trial, a probe test in the absence of the escape platform was given to assess spatial memory.

Data on nine molecules can be found in patent US20220062296A1, “COMBINATIONS OF GABAA ALPHA 5 AGONISTS AND SV2A INHIBITORS AND METHODS OF USING IN THE TREATMENT OF COGNITIVE IMPAIRMENT” (AGENEBIO, INC., priority 2020, published 2022).

Entries after “also recorded” stand apart in the source; their conditions may differ.

In the case of `COCc1nnc2n1Cc1c(C#Cc3cnc(OC)s3)ncn1-c1ccc(Cl)cc1-2` [Form A], the “hygroscopicity (DVS isotherm)” value in data set [1] (5% to 95% RH) was “low hygroscopicity; also recorded: limited hygroscopicity”. Besides, in data set [1] (5% to 95% RH, no hysteresis), the “weight change through the sorption/desorption cycle” value is on record as approximately 0.3%. In addition, in data set [1], the “form recovered after the DVS experiment (XRPD)” value was “same as the starting material”. In data set [2], the “onset of DSC exotherm due to decomposition” value (“onset of DSC exotherm due” below) is “about 207 °C”. For the same molecule, the “outcome of solvent-mediated interconversion with Form A (relative thermodynamic stability)” value (“outcome … (relative thermodynamic stability)” for short) in data set [3] was “Form A prevailed for each experiment”.
For the molecule `COCc1nnc2n1Cc1c(C#Cc3cnc(OC)s3)ncn1-c1ccc(Cl)cc1-2` [Form B], in data set [2], the “onset of DSC exotherm due” value was “about 190 °C”. Further, the “outcome … (relative thermodynamic stability)” value in data set [3] was “convert to Form A”.
Consider `COCc1nnc2n1Cc1c(C#Cc3cnc(OC)s3)ncn1-c1ccc(Cl)cc1-2` [Form C], for which the “onset of DSC exotherm due” value in data set [2] was 190 °C. Moreover, in data set [4] (80° C., overnight), the “behaviour upon overnight exposure to 80° C.” value was “desolvate to Form B”. In addition, the “stability under ambient storage” value in data set [4] is “remain unchanged for 9 weeks”.
For the molecule `COCc1nnc2n1Cc1c(C#Cc3cnc(OC)s3)ncn1-c1ccc(Cl)cc1-2` [Form E], the “onset of DSC exotherm due” value in data set [2] is approximately 201 °C. Besides, the “outcome … (relative thermodynamic stability)” value in data set [3] is reported as “metastable relative to Form A”.
In the case of `COCc1nnc2n1Cc1c(C#Cc3cnc(OC)s3)ncn1-c1ccc(Cl)cc1-2` [Form F], the “hygroscopicity (DVS isotherm)” value in data set [1] (5% to 95% RH) is on record as “limited hygroscopicity”. Further, the “weight gain on sorption” value in data set [1] (from 5-95% RH) is 1.8%. Further, in data set [1], the “form recovered after the DVS experiment (XRPD)” value is recorded as “still Form F”. For the same molecule, the “weight loss upon desorption” value in data set [1] (significant hysteresis) turned out to be 1.5%. Further, the “onset of DSC exotherm due” value in data set [2] was “above 120 °C”. For the same molecule, in data set [4] (100° C.), the “behaviour upon exposure to 100° C.” value is reported as “does dehydrate”. In addition, in data set [4] (vacuum, ambient temperature), the “stability under vacuum at ambient temperature” value was “remain unchanged for 5 days”.
Regarding `COCc1nnc2n1Cc1c(C#Cc3cnc(OC)s3)ncn1-c1ccc(Cl)cc1-2` [Material D], the “onset of DSC exotherm due” value in data set [2] was approximately 174 °C. In addition, the “stability under ambient storage” value in data set [4] is on record as “Material D still remained”. For the same molecule, the “outcome … (relative thermodynamic stability)” value in data set [3] is listed as “convert to Form A”.
Regarding `C#Cc1ccc2c(c1)C(c1ccccc1F)=N[C@H](C)c1c(C(=O)OCC)ncn1-2` [SH-053-2′F—R—CH3], the “number of spontaneously active DA neurons in the ventral tegmental area (VTA)” value in the data set on MAM-treated rats (MAM rats, systemic or infused into the ventral HPC) is “reduces the number of spontaneously active DA neurons”. Moreover, in the data set on MAM-treated rats (MAM-treated rats), the “increased locomotor response to amphetamine” value was “is reduced”. Besides, the “cortical-evoked responses of HPC neurons” value in the data set on MAM-treated rats (saline-treated and MAM-treated animals) is “diminished cortical-evoked responses”.
Take `CCC[C@@H]1CC(=O)N([C@@H](CC)C(N)=O)C1` [brivaracetam, (2S)-2-[(4R)-2-oxo-4-propylpyrrolidin-1-yl]butanamide]: the “number of errors in the retention phase after the 2-hr delay” value in data set [5] is “significant effect as a function of dose”. The “spatial bias for the target quadrant compared to the other control quadrants” value in the data set with aged-impaired rats (osmotic mini-pumps, started two weeks before, p=0.010) is “significant spatial bias for the target quadrant”. Moreover, the “time in the target quadrant vs vehicle-treated rats” value in the data set on aged-impaired rats (p=0.018) was “significantly more time in the target quadrant”. Further, the “time in the target annulus vs vehicle-treated rats” value in the data set on aged-impaired rats (p=0.036) is reported as “significantly more time in the target annulus”.
On to `CC[C@@H](C(N)=O)N1C[C@H](C=C(F)F)CC1=O` [seletracetam, (2S)-2-[(4S)-4-(2,2-difluoroethenyl)-2-oxopyrrolidin-1-yl]butanamide], for which, in data set [5], the “number of errors in the retention phase after the 2-hr delay” value was “significant effect as a function of dose”.
